Measurements as given in article PMC7179119, “A New Positron Emission Tomography Probe for Orexin Receptors Neuroimaging” (Molecules, 2020).
Read-outs that look alike come from different tables or passages of the source.

Legend:
[1] = molecular target: T1, 5-HT1A (Homo sapiens, UniProt P08908); assay: PDSP off-target radioligand binding assay
T1 construct: NIMH PDSP
T1 sequence (P08908 1-422): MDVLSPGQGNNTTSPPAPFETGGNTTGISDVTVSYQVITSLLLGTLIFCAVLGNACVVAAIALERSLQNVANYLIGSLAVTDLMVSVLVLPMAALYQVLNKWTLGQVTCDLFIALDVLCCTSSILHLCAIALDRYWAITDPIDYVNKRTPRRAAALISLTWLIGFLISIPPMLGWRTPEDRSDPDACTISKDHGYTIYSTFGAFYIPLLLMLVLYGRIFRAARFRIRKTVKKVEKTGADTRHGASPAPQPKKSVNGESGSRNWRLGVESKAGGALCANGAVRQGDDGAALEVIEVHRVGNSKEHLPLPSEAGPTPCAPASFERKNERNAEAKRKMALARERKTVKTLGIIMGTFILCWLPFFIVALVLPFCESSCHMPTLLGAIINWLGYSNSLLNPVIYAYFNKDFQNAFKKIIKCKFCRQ
Method in brief: (§1)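 Plates containing receptor, radioligand at roughly its Kd and 10 µM compound are incubated 90 min at room temperature, protected from light. Filtration onto PEI-treated mats stops the reaction; counted radioactivity, corrected by nonspecific binding with 10 µM reference ligand, yields % inhibition from quadruplicates.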

[2] = molecular target: DAT (Homo sapiens, UniProt Q01959); assay: PDSP off-target radioligand binding assay
Method in brief: as §1

[3] = molecular target: T2, Beta2 (Homo sapiens, UniProt P07550); assay: PDSP off-target radioligand binding assay
T2 construct: NIMH PDSP
Method in brief: as §1

[4] = molecular target: T3, 5-HT7A (Homo sapiens, UniProt P34969); assay: PDSP off-target radioligand binding assay
T3 construct: NIMH PDSP
Method in brief: as §1

[5] = Assessment of Lipophilicity (Log D; pH 7.4); assay type: physicochemical
Method: Log D was determined according to methods identical to those we previously reported.

[6] = molecular target: T4, Human recombinant OX2 receptors (Homo sapiens, UniProt O43614); assay: Human Orexin GPCR Binding (Agonist Radioligand) Assay, [125I] Orexin A competition
T4 sequence (O43614 1-444): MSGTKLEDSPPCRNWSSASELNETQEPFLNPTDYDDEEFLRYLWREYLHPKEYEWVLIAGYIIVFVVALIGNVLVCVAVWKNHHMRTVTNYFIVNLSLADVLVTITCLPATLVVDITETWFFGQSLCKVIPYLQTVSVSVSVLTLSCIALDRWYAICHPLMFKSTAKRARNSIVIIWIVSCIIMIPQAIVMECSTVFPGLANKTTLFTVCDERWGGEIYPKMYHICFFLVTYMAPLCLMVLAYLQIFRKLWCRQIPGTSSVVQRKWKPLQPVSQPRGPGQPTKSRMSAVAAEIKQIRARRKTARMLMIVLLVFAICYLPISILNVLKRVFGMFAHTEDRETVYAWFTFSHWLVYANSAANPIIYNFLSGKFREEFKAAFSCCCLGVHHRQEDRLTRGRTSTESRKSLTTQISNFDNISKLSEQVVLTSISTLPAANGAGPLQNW
Method: (§2) Radioligand competition binding assays were performed by Panlabs, Eurofins Pharma Discovery Services. Briefly, human recombinant orexin OX1 receptors expressed in CHO-S cells were used in modified HEPES buffer pH 7.4. […] Orexin A for 60 minutes at 25 °C. […] Orexin A specifically binding. Human recombinant OX2 receptors were used in modified HEPES buffer pH 7.4. […] Orexin A for 180 minutes at 25 °C. […] Orexin A specifically bound.

[7] = molecular target: T5, human recombinant orexin OX1 receptors (Homo sapiens, UniProt O43613); assay: as above
T5 construct: host or cells: CHO-S cells
T5 sequence (O43613 1-425): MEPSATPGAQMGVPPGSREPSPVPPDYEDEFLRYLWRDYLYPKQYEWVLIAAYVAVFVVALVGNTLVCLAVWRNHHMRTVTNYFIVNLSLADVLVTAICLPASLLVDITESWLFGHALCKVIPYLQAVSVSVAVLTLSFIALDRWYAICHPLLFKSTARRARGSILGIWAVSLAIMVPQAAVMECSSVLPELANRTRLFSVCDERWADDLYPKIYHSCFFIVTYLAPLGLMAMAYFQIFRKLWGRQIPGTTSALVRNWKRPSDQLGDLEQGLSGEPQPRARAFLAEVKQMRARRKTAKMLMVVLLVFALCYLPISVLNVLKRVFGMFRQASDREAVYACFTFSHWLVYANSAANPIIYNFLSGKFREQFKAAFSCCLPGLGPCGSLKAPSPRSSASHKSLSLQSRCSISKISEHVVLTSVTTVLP
Method: as §2

[8] = quadruplicate, read-out: Mean±SD % inhibition
[9] = replicate 1, read-out: % Inhibition 1
[10] = replicate 2, read-out: % Inhibition 2
[11] = replicate 3, read-out: % Inhibition 3
[12] = replicate 4, read-out: % Inhibition 4

T3 sequence (P34969 1-445 isoform P34969-2): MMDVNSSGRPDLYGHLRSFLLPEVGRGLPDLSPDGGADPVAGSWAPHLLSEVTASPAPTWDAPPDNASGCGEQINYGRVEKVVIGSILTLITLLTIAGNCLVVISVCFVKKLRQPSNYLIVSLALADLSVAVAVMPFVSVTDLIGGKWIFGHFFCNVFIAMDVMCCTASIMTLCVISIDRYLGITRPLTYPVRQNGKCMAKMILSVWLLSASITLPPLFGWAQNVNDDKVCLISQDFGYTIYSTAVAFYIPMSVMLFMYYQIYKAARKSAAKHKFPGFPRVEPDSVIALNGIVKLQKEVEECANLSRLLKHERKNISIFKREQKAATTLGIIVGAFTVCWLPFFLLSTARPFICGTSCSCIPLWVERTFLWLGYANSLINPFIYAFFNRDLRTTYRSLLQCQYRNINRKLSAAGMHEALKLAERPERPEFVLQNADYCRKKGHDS
Sequence of DAT (Q01959 whole entry, species assumed): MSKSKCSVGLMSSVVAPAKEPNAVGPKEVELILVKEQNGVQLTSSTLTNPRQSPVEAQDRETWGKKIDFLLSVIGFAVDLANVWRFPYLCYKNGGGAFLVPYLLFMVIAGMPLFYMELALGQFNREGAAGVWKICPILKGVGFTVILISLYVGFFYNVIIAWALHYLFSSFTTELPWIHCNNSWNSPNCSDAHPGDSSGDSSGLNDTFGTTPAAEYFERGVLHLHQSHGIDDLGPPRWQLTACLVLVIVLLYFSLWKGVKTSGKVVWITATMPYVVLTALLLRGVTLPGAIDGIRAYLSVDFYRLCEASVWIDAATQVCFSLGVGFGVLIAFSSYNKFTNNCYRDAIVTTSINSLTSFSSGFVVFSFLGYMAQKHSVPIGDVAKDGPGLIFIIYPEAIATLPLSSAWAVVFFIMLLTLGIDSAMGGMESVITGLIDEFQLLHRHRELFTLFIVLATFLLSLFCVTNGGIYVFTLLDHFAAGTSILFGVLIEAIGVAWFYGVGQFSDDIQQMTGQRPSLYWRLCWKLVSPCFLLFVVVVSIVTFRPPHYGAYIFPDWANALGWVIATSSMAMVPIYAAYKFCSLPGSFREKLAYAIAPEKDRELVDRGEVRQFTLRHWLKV
T2 sequence (P07550 whole entry): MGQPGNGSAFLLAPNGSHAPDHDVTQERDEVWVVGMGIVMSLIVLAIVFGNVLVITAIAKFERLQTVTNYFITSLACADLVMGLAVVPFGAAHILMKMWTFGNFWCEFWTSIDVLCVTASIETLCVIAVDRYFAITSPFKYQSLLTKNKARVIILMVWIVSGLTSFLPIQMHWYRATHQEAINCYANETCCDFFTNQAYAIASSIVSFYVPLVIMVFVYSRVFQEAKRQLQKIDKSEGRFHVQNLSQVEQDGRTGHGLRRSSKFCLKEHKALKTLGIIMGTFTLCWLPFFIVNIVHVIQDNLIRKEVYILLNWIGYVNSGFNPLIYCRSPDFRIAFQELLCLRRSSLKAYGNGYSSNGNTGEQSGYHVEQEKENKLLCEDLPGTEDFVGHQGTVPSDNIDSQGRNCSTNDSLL

## COc1ccnc(N2CCC3(CCCN(Cc4cn(C)c5ccccc45)C3=O)CC2)n1 [CW24]
[1]; [8]
  inhibition at 10 µM: -10.2 ± 8.4%
[1]; [9]
  inhibition at 10 µM: -4.55%
[1]; [10]
  inhibition at 10 µM: -4.08%
[1]; [11]
  inhibition at 10 µM: -22.1%
[1]; [12]
  inhibition at 10 µM: -9.84%
[2]; [8]
  inhibition at 10 µM: 4.6 ± 8.8%
[2]; [9]
  inhibition at 10 µM: -0.27%
[2]; [10]
  inhibition at 10 µM: -4.72%
[2]; [11]
  inhibition at 10 µM: 8.47%
[2]; [12]
  inhibition at 10 µM: 14.9%
[3]; [8]
  inhibition at 10 µM: -10.5 ± 5.4%
[3]; [9]
  inhibition at 10 µM: -12.2%
[3]; [10]
  inhibition at 10 µM: -5.09%
[3]; [11]
  inhibition at 10 µM: -7.41%
[3]; [12]
  inhibition at 10 µM: -17.3%
[4]; [8]
  inhibition at 10 µM: -54.8 ± 29.3%
[4]; [9]
  inhibition at 10 µM: -92.7%
[4]; [10]
  inhibition at 10 µM: -50.8%
[4]; [11]
  inhibition at 10 µM: -54.3%
[4]; [12]
  inhibition at 10 µM: -21.2%
[5]
  logD: 2.3
[6]; CW24 vs IPSU
  increase in potency compared to IPSU binding (OX2R): ~ 2 fold
[6]; competition binding against [^125I] orexin, read-out: IC50 OX2R
  IC50: 1410 nM
[7]; CW24 vs IPSU
  increase in potency compared to IPSU binding (OX1R): ~ 5 fold
[7]; competition binding against [^125I] orexin, read-out: IC50 OX1R
  IC50: 253 nM
